Measured values published in patent US20240051985A1, “METTL3 MODULATORS” (ACCENT THERAPEUTICS, INC., priority 2020, published 2024).

Columns and labels:
[1] = molecular target: METTL3/METTL14 (Homo sapiens, UniProt Q86U44); test: METTL3-14 standard enzyme assay (3H-SAM flashplate); settings: METTL3 biochemical assay
Method: METTL3-14 Standard Enzyme Assay
Assays were performed in a 25 μl-volume in 384-well V-bottom polypropylene microplates (Greiner Bio-One, cat. No. 781280) at ambient temperature. Optimized 1× assay buffer was 20 mM HEPES pH 7.5, 50 mM KCl, 250 μM MgCl2, 1 mM DTT, 0.01% Tween, 0.01% BSG, 0.004 U/μl RNAseOUT (cat. No. 10777019, ThermoFisher Scientific, Waltham, MA). For compound screening METTL3/METTL14 (final concentration, f.c.=2.5 nM) was added using a Multidrop Combi (ThermoFisher Scientific, Waltham, MA) and preincubated for 5 min. Reactions were started by adding 3′ biotinylated RNA (UCUGGACUAAA-biotin) (f.c.=100 nM) and 3H-SAM (f.c.=100 nM) substrates. Reactions proceeded for 30 minutes and were quenched with excess non-radioactive SAM (f.c.=15 μM). The reactions were then transferred to streptavidin-coated flashplates and incubated for 2 hours at 25° C. Following two washing cycles with 0.1% Tween-20, the plates were sealed and read on a TopCount (PerkinElmer, Waltham, MA) plate-based scintillation counter. For determination of kinetic parameters, reaction times were optimized so that measurements were taken during the initial velocity phase of the reaction.

[2] = molecular target: PRMT5-MEP50 (Homo sapiens, UniProt O14744); test: PRMT5 assay (3H-SAM flashplate); settings: PRMT5 biochemical assay
Method: Assays were performed in a 25 μl-volume in 384-well V-bottom polypropylene microplates (Greiner Bio-One, cat. No. 781280) at ambient temperature. Optimized 1× assay buffer was 20 mM Tris-HCl pH 8.0, 1 mM DTT, […]. For compound screening PRMT5-MEP50 (final concentration, f.c.=2.5 nM) was added using a Multidrop Combi (ThermoFisher Scientific, Waltham, MA) and preincubated for 5 min. Reactions were started by adding 3′ biotinylated histone H4 peptide acetylated on serine 1 (Ac-[…]-Biotin) (f.c.=100 nM) and 3H-SAM (f.c.=250 nM) substrates. Reactions proceeded for 60 minutes and were quenched with excess non-radioactive SAM (f.c.=15 μM). The reactions were then transferred to streptavidin-coated flashplates and incubated for 2 hours at 25° C. Following two washing cycles with 0.1% Tween-20, the plates were sealed and read on a TopCount (PerkinElmer, Waltham, MA) plate-based scintillation counter. For determination of kinetic parameters, reaction times were optimized so that measurements were taken during the initial velocity phase of the reaction.

PRMT5-MEP50, sequence (O14744 whole entry): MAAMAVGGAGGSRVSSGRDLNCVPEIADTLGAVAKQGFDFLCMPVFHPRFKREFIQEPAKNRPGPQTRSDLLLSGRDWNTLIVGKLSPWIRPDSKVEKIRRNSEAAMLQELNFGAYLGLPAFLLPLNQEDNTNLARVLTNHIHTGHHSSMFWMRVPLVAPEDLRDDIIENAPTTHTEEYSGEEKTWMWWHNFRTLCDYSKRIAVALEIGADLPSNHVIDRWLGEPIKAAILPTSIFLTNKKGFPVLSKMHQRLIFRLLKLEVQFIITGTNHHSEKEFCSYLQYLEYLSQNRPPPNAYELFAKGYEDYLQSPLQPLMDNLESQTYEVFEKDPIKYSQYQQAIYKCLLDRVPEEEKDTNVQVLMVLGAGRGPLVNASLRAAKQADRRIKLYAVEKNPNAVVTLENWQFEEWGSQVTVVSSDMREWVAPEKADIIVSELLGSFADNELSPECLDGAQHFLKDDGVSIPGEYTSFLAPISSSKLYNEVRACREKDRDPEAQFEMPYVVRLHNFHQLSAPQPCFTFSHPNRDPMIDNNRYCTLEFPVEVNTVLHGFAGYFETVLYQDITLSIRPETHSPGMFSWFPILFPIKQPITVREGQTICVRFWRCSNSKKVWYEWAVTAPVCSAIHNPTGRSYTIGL
PRMT5-MEP50, sequence (Q9BQA1 whole entry partner): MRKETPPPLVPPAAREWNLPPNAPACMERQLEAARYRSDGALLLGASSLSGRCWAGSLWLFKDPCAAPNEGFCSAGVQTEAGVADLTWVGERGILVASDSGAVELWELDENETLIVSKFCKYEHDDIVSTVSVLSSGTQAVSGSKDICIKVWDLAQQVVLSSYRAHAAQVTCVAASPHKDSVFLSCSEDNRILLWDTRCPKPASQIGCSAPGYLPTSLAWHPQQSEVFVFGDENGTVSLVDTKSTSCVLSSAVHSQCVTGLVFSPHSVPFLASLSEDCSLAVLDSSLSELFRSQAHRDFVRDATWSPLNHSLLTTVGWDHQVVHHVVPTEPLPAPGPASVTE
METTL3/METTL14, sequence (Q86U44 whole entry, species assumed): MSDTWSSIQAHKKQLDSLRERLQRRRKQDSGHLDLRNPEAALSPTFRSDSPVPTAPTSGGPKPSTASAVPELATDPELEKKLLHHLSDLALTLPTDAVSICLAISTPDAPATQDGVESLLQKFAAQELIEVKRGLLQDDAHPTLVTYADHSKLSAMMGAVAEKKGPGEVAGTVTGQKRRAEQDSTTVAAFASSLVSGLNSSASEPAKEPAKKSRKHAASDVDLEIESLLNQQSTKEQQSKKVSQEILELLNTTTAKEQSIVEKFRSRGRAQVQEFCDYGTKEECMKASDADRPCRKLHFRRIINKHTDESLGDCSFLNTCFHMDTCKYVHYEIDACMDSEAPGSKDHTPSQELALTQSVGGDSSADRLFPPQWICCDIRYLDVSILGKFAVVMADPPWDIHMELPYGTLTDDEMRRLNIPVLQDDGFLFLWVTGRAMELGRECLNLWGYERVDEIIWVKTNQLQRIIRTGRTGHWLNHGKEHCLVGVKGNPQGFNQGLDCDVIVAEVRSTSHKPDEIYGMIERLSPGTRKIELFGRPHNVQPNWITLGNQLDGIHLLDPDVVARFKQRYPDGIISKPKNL
METTL3/METTL14, sequence (Q9HCE5 whole entry partner, species assumed): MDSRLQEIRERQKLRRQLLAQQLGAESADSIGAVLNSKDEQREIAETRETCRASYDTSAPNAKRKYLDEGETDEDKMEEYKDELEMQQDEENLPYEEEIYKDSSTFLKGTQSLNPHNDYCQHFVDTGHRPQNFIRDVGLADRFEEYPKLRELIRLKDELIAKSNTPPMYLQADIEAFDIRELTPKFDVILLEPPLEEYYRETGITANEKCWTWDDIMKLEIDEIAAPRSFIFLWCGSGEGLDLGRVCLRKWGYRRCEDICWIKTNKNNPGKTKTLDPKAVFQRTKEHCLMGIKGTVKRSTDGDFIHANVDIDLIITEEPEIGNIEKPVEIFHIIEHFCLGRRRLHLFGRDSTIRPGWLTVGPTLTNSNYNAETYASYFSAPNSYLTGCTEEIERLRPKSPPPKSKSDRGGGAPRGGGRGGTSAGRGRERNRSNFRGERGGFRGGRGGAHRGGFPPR

SMILES | IC50 ([1]; Table 4) | IC50 ([2]; Table 4) | IC50 ([1]; Table 3) | IC50 ([2]; Table 3)
Cn1ccc(-c2cn([C@@H]3O[C@H](C(=O)NCc4cnccn4)[C@@H](O)[C@H]3O)c3ncnc(N)c23)n1 [Compound I-20] | – | – | 100 to 1000 nM | ≥ 1000 nM
Cn1ccc(-c2cn([C@@H]3O[C@H](C(=O)NCC4CCNCC4)[C@@H](O)[C@H]3O)c3ncnc(N)c23)n1 [Compound I-2] | – | – | 100 to 1000 nM | 10 to 100 nM
CN(C)CCNC(=O)[C@H]1O[C@@H](n2cc(-c3ccn(C)n3)c3c(N)ncnc32)[C@H](O)[C@@H]1O [Compound I-4] | – | – | ≥ 1000 nM | 10 to 100 nM
Nc1ncnc2c1c(-n1cccn1)cn2[C@H]1C[C@H](O)[C@@H](C(=O)Nc2ccc3nc(NC4CCC4)[nH]c3c2)O1 [Compound I-30] | – | – | < 10 nM | 100 to 1000 nM
Cn1ccc(-c2cn([C@@H]3O[C@H](C(=O)NCc4ccccc4)[C@@H](O)[C@H]3O)c3ncnc(N)c23)n1 [Compound I-26] | – | – | 100 to 1000 nM | ≥ 1000 nM
COCCCN(C(=O)[C@H]1O[C@@H](n2cc(-c3ccn(C)n3)c3c(N)ncnc32)[C@H](O)[C@@H]1O)C1CCNCC1 [Compound I-7] | – | – | ≥ 1000 nM | 10 to 100 nM
COCCNC(=O)[C@H]1O[C@@H](n2cc(-c3ccn(C)n3)c3c(N)ncnc32)[C@H](O)[C@@H]1O [Compound I-3] | – | – | ≥ 1000 nM | ≥ 1000 nM
CCNc1ccnc(NC(=O)[C@H]2O[C@@H](n3cc(-n4cccn4)c4c(N)ncnc43)C[C@@H]2O)c1 [Compound I-29] | – | – | 100 to 1000 nM | ≥ 1000 nM
CN1CCC(NC(=O)[C@H]2O[C@@H](n3cc(-c4ccn(C)n4)c4c(N)ncnc43)[C@H](O)[C@@H]2O)CC1 [Compound I-25] | – | – | 100 to 1000 nM | 10 to 100 nM
COCCN(C(=O)[C@H]1O[C@@H](n2cc(-c3ccn(C)n3)c3c(N)ncnc32)[C@H](O)[C@@H]1O)C1CCNCC1 [Compound I-6] | – | – | ≥ 1000 nM | < 10 nM
CNc1ccc2ccc(N(CC[C@H](N)C(=O)O)C(=O)[C@H]3O[C@@H](n4cc(-c5ccn(C)n5)c5c(N)ncnc54)[C@H](O)[C@@H]3O)cc2n1 [Compound I-38, (2S)-2-amino-4-{1-[(2S,3S,4R,5R)-5-[4-amino-5-(1-methyl-1H-pyrazol-3-yl)-7H-pyrrolo[2,3-d]pyrimidin-7-yl]-3,4-dihydroxyoxolan-2-yl]-N-[2-(methylamino)quinolin-7-yl]formamido}butanoic acid] | < 10 nM | 100 to 1000 nM | – | –
Nc1ccnc(NC(=O)[C@H]2O[C@@H](n3cc(-n4cccn4)c4c(N)ncnc43)C[C@@H]2O)c1 [Compound I-18] | – | – | 10 to 100 nM | ≥ 1000 nM
Cn1ccc(-c2cn([C@@H]3O[C@H](C(=O)NCC4CCN(CCO)CC4)[C@@H](O)[C@H]3O)c3ncnc(N)c23)n1 [Compound I-19] | – | – | 100 to 1000 nM | 10 to 100 nM
Cn1ccc(-c2cn([C@@H]3O[C@H](C(=O)NCC4CCC(F)(F)CC4)[C@@H](O)[C@H]3O)c3ncnc(N)c23)n1 [Compound I-22] | – | – | 100 to 1000 nM | 100 to 1000 nM
Nc1ncnc2c1ccn2[C@@H]1O[C@H](C(=O)NCC2CCN(CC(F)F)CC2)[C@@H](O)[C@H]1O [Compound I-28] | – | – | ≥ 1000 nM | ≥ 1000 nM
Cn1ccc(-c2cn([C@@H]3O[C@H](C(=O)N(CC[C@H](N)C(=O)O)C4CCNCC4)[C@@H](O)[C@H]3O)c3ncnc(N)c23)n1 [Compound I-9] | – | – | 100 to 1000 nM | ≥ 1000 nM

Now from value to compound:

IC50 ([1]; Table 4) | IC50 ([2]; Table 4) | IC50 ([1]; Table 3) | IC50 ([2]; Table 3) | SMILES
≥ 1000 nM | ≥ 1000 nM | – | – | CN1CCC(NC(=O)[C@H]2C[C@@H](n3cc(-c4ccn(C)n4)c4c(N)ncnc43)C[C@@H]2O)CC1 [Compound I-55, (1S,2S,4R)-4-(4-amino-5-(1-methyl-1H-pyrazol-3-yl)-7H-pyrrolo[2,3-d]pyrimidin-7-yl)-2-hydroxy-N-(1-methylpiperidin-4-yl)cyclopentane-1-carboxamide]
≥ 1000 nM | 10 to 100 nM | – | – | CN1CCC(N(CCCc2nn[nH]n2)C(=O)[C@H]2O[C@@H](n3cc(-c4ccn(C)n4)c4c(N)ncnc43)[C@H](O)[C@@H]2O)CC1 [Compound I-48]
≥ 1000 nM | ≥ 1000 nM | – | – | Cn1ccc(-c2cn([C@@H]3O[C@H](C(=O)N[C@H]4C[C@@H](O)C4)[C@@H](O)[C@H]3O)c3ncnc(N)c23)n1 [Compound I-214]
100 to 1000 nM | 100 to 1000 nM | – | – | CN1CCC(N(CCCc2cnoc2)C(=O)[C@H]2O[C@@H](n3cc(-c4ccn(C)n4)c4c(N)ncnc43)[C@H](O)[C@@H]2O)CC1 [Compound I-152]
100 to 1000 nM | 100 to 1000 nM | – | – | Cn1ccc(-c2cn([C@@H]3O[C@H](C(=O)NC4CCC5(CC4)CNC5)[C@@H](O)[C@H]3O)c3ncnc(N)c23)n1 [Compound I-208]
≥ 1000 nM | 10 to 100 nM | – | – | CN1CCC(N(CC2CN(C)C2)C(=O)[C@H]2O[C@@H](n3cc(-c4ccn(C)n4)c4c(N)ncnc43)[C@H](O)[C@@H]2O)CC1 [Compound I-47]
≥ 1000 nM | ≥ 1000 nM | – | – | Cn1ccc(-c2cn([C@@H]3O[C@H](C(=O)N4CCC[C@H](C(N)=O)C4)[C@@H](O)[C@H]3O)c3ncnc(N)c23)n1 [Compound I-200]
100 to 1000 nM | ≥ 1000 nM | – | – | Cn1ccc(-c2cn([C@@H]3O[C@H](C(=O)N(CC[C@H](N)C(=O)O)c4ccc5nc(N)[nH]c5c4)[C@@H](O)[C@H]3O)c3ncnc(N)c23)n1 [Compound I-39, (2S)-2-amino-4-[N-(2-amino-1H-1,3-benzodiazol-6-yl)-1-[(2S,3S,4R,5R)-5-[4-amino-5-(1-methyl-1H-pyrazol-3-yl)-7H-pyrrolo[2,3-d]pyrimidin-7-yl]-3,4-dihydroxyoxolan-2-yl]formamido]butanoic acid]
≥ 1000 nM | ≥ 1000 nM | – | – | Cn1ccc(-c2cn([C@@H]3O[C@H](C(=O)NC4CCN(CCN)CC4)[C@@H](O)[C@H]3O)c3ncnc(N)c23)n1 [Compound I-41, (2S,3S,4R,5R)-5-[4-amino-5-(1-methyl-1H-pyrazol-3-yl)-7H-pyrrolo[2,3-d]pyrimidin-7-yl]-N-[1-(2-aminoethyl)piperidin-4-yl]-3,4-dihydroxyoxolane-2-carboxamide]
100 to 1000 nM | 100 to 1000 nM | – | – | Cn1ccc(-c2cn([C@@H]3O[C@H](C(=O)NC4CCN(c5ccccc5)CC4)[C@@H](O)[C@H]3O)c3ncnc(N)c23)n1 [Compound I-221]
100 to 1000 nM | ≥ 1000 nM | – | – | Cn1ccc(-c2cn([C@@H]3O[C@H](C(=O)NC4CCN(c5ccccn5)CC4)[C@@H](O)[C@H]3O)c3ncnc(N)c23)n1 [Compound I-222]
≥ 1000 nM | ≥ 1000 nM | – | – | Cn1ccc(-c2cn([C@@H]3O[C@H](C(=O)NC4CCS(=O)(=O)C4)[C@@H](O)[C@H]3O)c3ncnc(N)c23)n1 (stereo partly drawn) [Compound I-213]
100 to 1000 nM | 10 to 100 nM | – | – | CN1CCC(N(CCCNC(=O)OCc2ccccc2)C(=O)[C@H]2O[C@@H](n3cc(-c4ccn(C)n4)c4c(N)ncnc43)[C@H](O)[C@@H]2O)CC1 [Compound I-49, benzyl N-(3-{1-[(2S,3S,4R,5R)-5-[4-amino-5-(1-methyl-1H-pyrazol-3-yl)-7H-pyrrolo[2,3-d]pyrimidin-7-yl]-3,4-dihydroxyoxolan-2-yl]-N-(1-methylpiperidin-4-yl)formamido}propyl)carbamate]
≥ 1000 nM | 10 to 100 nM | – | – | CN1CCC(N(CCCC(=O)O)C(=O)[C@H]2O[C@@H](n3cc(-c4ccn(C)n4)c4c(N)ncnc43)[C@H](O)[C@@H]2O)CC1 [Compound I-58, 4-{1-[(2S,3S,4R,5R)-5-[4-amino-5-(1-methyl-1H-pyrazol-3-yl)-7H-pyrrolo[2,3-d]pyrimidin-7-yl]-3,4-dihydroxyoxolan-2-yl]-N-(1-methylpiperidin-4-yl)formamido}butanoic acid]
100 to 1000 nM | < 10 nM | – | – | C#CCCCN(C(=O)[C@H]1O[C@@H](n2cc(-c3ccn(C)n3)c3c(N)ncnc32)[C@H](O)[C@@H]1O)C1CCN(C)CC1 [Compound I-59, (2S,3S,4R,5R)-5-(4-amino-5-(1-methyl-1H-pyrazol-3-yl)-7H-pyrrolo[2,3-d]pyrimidin-7-yl)-3,4-dihydroxy-N-(1-methylpiperidin-4-yl)-N-(pent-4-yn-1-yl)tetrahydrofuran-2-carboxamide]
10 to 100 nM | 10 to 100 nM | – | – | Cn1ccc(-c2cn([C@@H]3O[C@H](C(=O)NC4CCN(Cc5ccccc5)CC4)[C@@H](O)[C@H]3O)c3ncnc(N)c23)n1 [Compound I-201]
100 to 1000 nM | 100 to 1000 nM | – | – | Cn1ccc(-c2cn([C@@H]3O[C@H](C(=O)NC4CCN(C5CCC5)CC4)[C@@H](O)[C@H]3O)c3ncnc(N)c23)n1 [Compound I-224]
